Among the data in ChEMBL document CHEMBL1128657, “Synthesis and in vitro biological evaluation of new triphenylethylene platinum (II) complexes” (Bioorg Med Chem Lett, 1995) are IC50 values, retold here.

The test system of experiment [1] is MDA-MB-231. Nature of the experiment: In vitro inhibition of estrogen receptor negative […] human mammary carcinoma cell proliferation. In kind it is functional, cell-based.
The subject of experiment [2] is MCF7. Nature of the experiment: In vitro inhibition of estrogen receptor positive MCF-7 human mammary carcinoma cell proliferation. Format: functional, cell-based.

Turning to `CC/C(=C(\c1ccccc1)c1ccc(OCCN(C)C)cc1)c1ccccc1` [TAMOXIFEN], the half-inhibitory concentration (IC50) (commonly the concentration needed to halve the response being measured) amounted to 28 µM in experiment [1] (Homo sapiens, MDA-MB-231) and 17 µM in experiment [2] (Homo sapiens, MCF7).

On to `COc1ccc(C(=C(CCCCCCCCCCCNCCN)c2ccccc2)c2ccc(OC)cc2)cc1`, for which the concentration for half-maximal inhibition (IC50) stood at 2.3 µM in experiment [1] (Homo sapiens, MDA-MB-231) and 14 µM in experiment [2] (Homo sapiens, MCF7).

Turning to CISPLATIN, the IC50 in experiment [1] (mda-mb-231) was 3.4 µM; in experiment [2] (mcf7) it was 3 µM.
